Test results from paper PMC12977544, “Phenotypic high-throughput screening identifies modulators of gut microbial choline metabolism” (mBio, 2026).
Read-outs that look alike come from different tables or passages of the source.

How the values were obtained:
Experiment in all cases: TMA inhibition in bacterial whole cells (LC–MS/MS of d9-TMA from d9-choline)
E. coli MS 200-1 = type: cell-based, Escherichia coli MS 200-1
Protocol: (§1) For TMA inhibition assays, E. coli and P. mirabilis were grown in NCE medium supplemented with 20 mM choline chloride, A. hydrogenalis was grown in MEGA medium supplemented with 3 mM choline chloride, and C. sporogenes was grown in BHI medium supplemented with 20 mM of choline chloride to induce expression of the cut gene cluster. For MIC assays, all bacteria strains were grown in MEGA medium.
(§2) Compounds were stored as 10 mM DMSO stocks at –20°C and diluted in DMSO to prepare varying concentrations of inhibitors for testing. Bacteria were grown anaerobically overnight in media supplemented with choline as described above. Cells were pelleted and resuspended in PBS, and d9-choline chloride was added to a final concentration of 1 mM. The final OD600 of the PBS cell resuspensions is as follows: 0.4 (E. coli), 0.15–0.2 (P. mirabilis), 0.2 (C. sporogenes), and 0.4 (A. hydrogenalis). The resuspended cells were added to 96-well plates containing inhibitors (final concentration of 1% DMSO, with final inhibitor concentrations ranging between 0 and 325 µM). The plates were sealed and incubated for 75 min (or 90 min for P. mirabilis) at 37°C. Following incubation, the plates were removed from the anaerobic chamber and analyzed immediately or kept at –20°C until LC–MS/MS analysis. Each inhibitor concentration was tested in triplicate. EC50 values were calculated with GraphPad Prism by fitting the log(inhibitor) vs response—Variable slope (four-parameter) model for non-linear regression.
(§3) Samples were kept frozen until analysis and kept cold on ice during handling due to the volatility of TMA. Bacterial cell resuspensions in PBS were diluted 100-fold in LCMS-grade acetonitrile with 0.1% formic acid to lyse cells, precipitate proteins, and extract metabolites. Samples were centrifuged at 4,000 rpm for 10 min at 4°C to pellet proteins. The supernatants were then further diluted 20-fold in LCMS-grade acetonitrile with 0.1% formic acid, and the resulting solution was analyzed by LC–MS/MS.
(§4) LC–MS/MS analysis was performed on an Agilent 1290/6470 Triple Quadrupole LC–MS instrument (Agilent Technologies) using electrospray ionization. The mass spectrometer was operated in multiple reaction monitoring (MRM) mode with positive ionization monitoring. The precursor–product ion pairs used in MRM mode were as follows: m/z 69.1m/z → 49.1 (d9-TMA) and m/z 113.2 m/z → 69.1 (d9-choline). The capillary voltage was set to 4.0 kV, and the fragmentor voltage was set to 30 V (d9-TMA) and 115 V (d9-choline). The collision energy for the precursor–product ion pairs was set to 29 V (d9-TMA) and 21 V (d9-choline). MS^1 resolution was set to wide and MS^2 resolution to unit. The drying gas temperature was maintained at 250°C, with a flow rate of 11 L/min and a nebulizer pressure of 45 psi. The time filter width used was 0.07 min. The injection volume of all samples was 1 μL. Samples were injected onto InfinityLab Poroshell 120 (Agilent) HILIC columns (2.7 μm, 100 mm × 2.1 mm, 100 Å) preceded by InfinityLab Poroshell 120 HILIC guard columns (2.1 mm, 1.9µm UHPLC guard). The LC conditions on the binary pump were as follows: a gradient of 5–35% A increasing over 1.95 min (1.2 mL/min), a gradient of 35–5% A decreasing over 0.05 min (1.6 mL/min), and held at 5% A for 0.5 min (2 mL/min). […] Solvent A was 10 mM ammonium formate with 0.1% formic acid, and solvent B was acetonitrile with 0.1% formic acid. Data analysis was performed with Mass Hunter Workstation Data Acquisition and Qualitative Analysis software (Agilent Technologies).

[1] = test system: Anaerococcus hydrogenalis DSM 7454; type: cell-based; settings: 1 mM d9-choline in PBS, 75 min, 37°C, anaerobic
Protocol: as §1, §2, §3, §4

[2] = test system: Clostridium sporogenes ATCC 15579; type: cell-based; settings: 1 mM d9-choline in PBS, 75 min, 37°C, anaerobic
Protocol: as §1, §2, §3, §4

[3] = test system: Proteus mirabilis ATCC 29906; type: cell-based; settings: 1 mM d9-choline in PBS, 90 min, 37°C, anaerobic; for EC50: read-out: EC50 in whole cells, P. mirabilis (TMA inhibition)
Protocol: as §1, §2, §3, §4

[4] = Escherichia coli, MS2001, 1.25 h, 1 mM d9-choline in PBS, 75 min, 37°C, anaerobic
[5] = Anaerococcus hydrogenalis, DSM7454, 1.25 h
[6] = Clostridium sporogenes, ATCC15579, 1.25 h
[7] = Proteus mirabilis, ATCC29906, 1.5 h
[8] = 1 mM d9-choline in PBS, 75 min, 37°C, anaerobic

Row | Compound | EC50 (E. coli MS 200-1; [4]) | EC50 [2, 6] | EC50 [3, 7] | EC50 (E. coli MS 200-1; [8]) | EC50 [2] | EC50 [3] | other results
1 | Cc1ccc(-c2cc(C(=O)NCCCN3CCC(C)CC3)c(C)[nH]2)cc1C [C00002] | 9 µM | – | – | – | – | – | –
2 | Cc1ccc(-c2cc(C(=O)NCCN3CCC(C)CC3)c(C)[nH]2)cc1C [C00003] | 7 µM | 213 µM | 64 µM | – | – | – | EC50 [1, 5]: 176 µM
3 | Cc1ccc(-c2cc(C(=O)NCCCCN3CCC(C)CC3)c(C)[nH]2)cc1C [C00004] | 5 µM | 138 µM | 35 µM | – | – | – | EC50 [1, 5]: 27 µM
4 | Cc1ccc(-c2cc(C(=O)NCCCCCN3CCC(C)CC3)c(C)[nH]2)cc1C [C00005] | 11 µM | 84 µM | 66 µM | – | – | – | EC50 [1, 5]: 33 µM
5 | Cc1ccc(-c2cc(C(=O)NCCC3=CCCCC3)c(C)[nH]2)cc1C [C00006] | > 100 µM | – | – | – | – | – | EC50 in whole cells, C. sporogenes (TMA inhibition) [2]: No inhibition at 100
6 | COCCNC(=O)c1cc(-c2ccc(C)c(C)c2)[nH]c1C [C00007] | – | – | – | – | – | – | EC50 in whole cells, E. coli (TMA inhibition) (E. coli MS 200-1; [8]): No inhibition at 100; EC50 in whole cells, C. sporogenes (TMA inhibition) [2]: No inhibition at 100
7 | Cc1ccc(-c2cc(C(=O)NCCN)c(C)[nH]2)cc1C [C00008] | 140 µM | – | – | – | – | – | EC50 in whole cells, C. sporogenes (TMA inhibition) [2]: No inhibition at 312; EC50 in whole cells, P. mirabilis (TMA inhibition) [3]: No inhibition at 312
8 | CCCNCCNC(=O)c1cc(-c2ccc(C)c(C)c2)[nH]c1C [C00009] | 60 µM | > 312 µM | > 312 µM | – | – | – | –
9 | CCCN(CCC)CCNC(=O)c1cc(-c2ccc(C)c(C)c2)[nH]c1C [C00010] | 200 µM | > 312 µM | > 312 µM | – | – | – | –
10 | Cc1ccc(-c2cc(C(=O)NCCCN3CCOCC3)c(C)[nH]2)cc1C [C00011] | > 125 µM | – | – | – | – | – | EC50 in whole cells, C. sporogenes (TMA inhibition) [2]: No inhibition at 312; EC50 in whole cells, P. mirabilis (TMA inhibition) [3]: No inhibition at 312
11 | Cc1ccc(-c2cc(C(=O)NCCCN3CCN(C)CC3)c(C)[nH]2)cc1C [C00012] | 14 µM | 92 µM | 58 µM | – | – | – | EC50 in whole cells, A. hydrogenalis (TMA inhibition) [1]: No inhibition at 312
12 | Cc1ccc(-c2cc(C(=O)NCCCN3CCN(C)C(=O)C3)c(C)[nH]2)cc1C [C00013] | > 125 µM | > 312 µM | – | – | – | – | EC50 in whole cells, P. mirabilis (TMA inhibition) [3]: No inhibition at 312
13 | Cc1ccc(-c2cc(C(=O)NCCCN3CCCC3)c(C)[nH]2)cc1C [C00014] | 11 µM | 78 µM | 104 µM | – | – | – | EC50 [1, 5]: 83 µM
14 | Cc1ccc(-c2cc(C(=O)NCCCN3CCCCC3)c(C)[nH]2)cc1C [C00015] | 10 µM | 267 µM | 193 µM | – | – | – | EC50 [1, 5]: 244 µM
15 | Cc1ccc(-c2cc(C(=O)NCCCN3CCCCCC3)c(C)[nH]2)cc1C [C00016] | 2 µM | 104 µM | 40 µM | – | – | – | EC50 [1, 5]: 43 µM
16 | Cc1ccc(-c2cc(C(=O)NCCCN3CCCCCCC3)c(C)[nH]2)cc1C [C00017] | 3 µM | 40 µM | 28 µM | – | – | – | EC50 [1, 5]: 28 µM
17 | Cc1ccc(-c2cc(C(=O)NCCCCN3CCCCCC3)c(C)[nH]2)cc1C [C00018] | 8 µM | 68 µM | 33 µM | – | – | – | EC50 [1, 5]: 7 µM

Row | Compound | EC50 (E. coli MS 200-1; [4]) | EC50 [2, 6] | EC50 [3, 7] | EC50 (E. coli MS 200-1; [8]) | EC50 [2] | EC50 [3] | other results
18 | Cc1ccc(-c2cc(C(=O)NCCCCCN3CCCCCC3)c(C)[nH]2)cc1C [C00019] | 2 µM | – | – | – | – | – | –
19 | Cc1ccc(-c2[nH]cc(C(=O)NCCCN3CCC(C)CC3)c2C)cc1C [Compound 8] | – | – | – | > 125 µM | 97 µM | 131 µM | Fold increase of EC50 in E. coli (E. coli MS 200-1; compared with compound 6): more than 10 fold
20 | CCc1[nH]c(-c2ccc(C)c(C)c2)cc1C(=O)NCCCN1CCC(C)CC1 [Compound 9] | – | – | – | 35 µM | 103 µM | – | –
21 | Cc1ccc(-c2ccc(C(=O)NCCCN3CCC(C)CC3)[nH]2)cc1C [Compound 10] | – | – | – | 98 µM | 312 µM | 63 µM | –
22 | Cc1ccc(-c2c[nH]c(C(=O)NCCCN3CCC(C)CC3)c2)cc1C [Compound 11] | – | – | – | 13 µM | > 312 µM | 42 µM | –
23 | Cc1ccc(-c2cc(C(=O)NCCCN3CCC(C)CC3)c(C)o2)cc1C [Compound 12] | – | – | – | 15 µM | – | > 312 µM | EC50 [1]: 54 µM
24 | Cc1ccc(-c2cc(C(=O)NCCCN3CCC(C)CC3)cs2)cc1C [Compound 13] | – | – | – | 14 µM | 85 µM | 50 µM | –
25 | Cc1ccc(-c2ncc(C(=O)NCCCN3CCC(C)CC3)s2)cc1C [Compound 14] | – | – | – | 27 µM | 215 µM | 197 µM | –
26 | Cc1ccc(-c2cc(C(=O)NCCCN3CCC(C)CC3)cn2C)cc1C [Compound 15] | – | – | – | 21 µM | – | 98 µM | –
27 | C#CCn1c(-c2ccc(C)c(C)c2)cc(C(=O)NCCCN2CCC(C)CC2)c1C [Compound 16] | – | – | – | 39 µM | 5 µM | – | –
28 | Cc1ccc(-c2cc(C(=O)NCCCN3CCC(C)CC3)c(C)n2C2CCCC2)cc1C [Compound 17] | – | – | – | 69 µM | 8 µM | – | –
29 | Cc1ccc(-c2cc(C(=O)NCCCN3CCC(C)CC3)c(C)n2-c2ccccc2)cc1C [Compound 18] | – | – | – | 489 µM | 3 µM | – | –
30 | Cc1[nH]c(C2CCCCC2)cc1C(=O)NCCCN1CCC(C)CC1 [Compound 21] | – | – | – | 51 µM | 8 µM | – | EC50 [1]: 32 µM
31 | Cc1[nH]c(-c2ccccc2)cc1C(=O)NCCCN1CCC(C)CC1 [Compound 22] | – | – | – | 7 µM | 147 µM | 157 µM | EC50 [1]: 24 µM
32 | Cc1ccc(-c2cc(C(=O)NCCCN3CCC(C)CC3)c(C)[nH]2)cc1 [Compound 24] | – | – | – | 92 µM | – | 131 µM | –
33 | Cc1cc(C)cc(-c2cc(C(=O)NCCCN3CCC(C)CC3)c(C)[nH]2)c1 [Compound 25] | – | – | – | 6 µM | 133 µM | 28 µM | EC50 [1]: 19 µM
